According to ChEMBL document CHEMBL4823305, “Design, synthesis and antibacterial evaluation of novel 3-O-substituted 15-membered azalides possessing 1,2,3-triazole side chains” (2021):
In brackets after ≈: the same amount, converted by molar mass.

Columns and labels:
Type in all cases: functional
Staphylococcus aureus [1] = assay: Antibacterial activity against erythromycin-susceptible Staphylococcus aureus ATCC25923 by broth microdilution method
Enterococcus faecium = assay: Antibacterial activity against clinical isolate erythromycin-resistant Enterococcus faecium by broth microdilution method
Klebsiella pneumoniae = assay: Antibacterial activity against Klebsiella pneumoniae ATCC10031 by broth microdilution method
[2] = Ratio of MBC for bactericidal activity against methicillin-resistant Staphylococcus aureus ATCC43300 to MIC for antibacterial activity against methicillin-resistant Staphylococcus aureus ATCC43300 by broth microdilution method
Enterococcus faecalis = assay: Antibacterial activity against vancomycin-susceptible Enterococcus faecalis ATCC29212 by broth microdilution method
Staphylococcus aureus [3] = assay: Antibacterial activity against methicillin-resistant Staphylococcus aureus ATCC43300 by broth microdilution method
Bacillus subtilis = assay: Antibacterial activity against penicillin-susceptible Bacillus subtilis ATCC9372 by broth microdilution method
Staphylococcus aureus [4] = assay: Bactericidal activity against methicillin-resistant Staphylococcus aureus ATCC43300
Staphylococcus aureus [5] = assay: Antibacterial activity against penicillin-resistant Staphylococcus aureus by broth microdilution method

SMILES	MIC (Staphylococcus aureus [1])	MIC (Enterococcus faecium)	MIC (Klebsiella pneumoniae)	Ratio [2]	MIC (Enterococcus faecalis)	MIC (Staphylococcus aureus [3])	MIC (Bacillus subtilis)	MBC (Staphylococcus aureus [4])	MIC (Staphylococcus aureus [5])
CC[C@H]1OC(=O)[C@H](C)[C@@H](OC(=O)NNC(=O)Cn2cc(-c3ccc(-c4ccccc4)cc3)nn2)[C@H](C)[C@@H](O[C@@H]2O[C@H](C)C[C@H](N(C)C)[C@H]2O)[C@](C)(O)C[C@@H](C)CN(C)[C@H](C)[C@H]2OC(=O)O[C@@]21C	16 µg/mL (≈ 17.1 µM)	16 µg/mL (≈ 17.1 µM)	32 µg/mL (≈ 34.2 µM)	>8	8 µg/mL (≈ 8.55 µM)	32 µg/mL (≈ 34.2 µM)	16 µg/mL (≈ 17.1 µM)	> 256 µg/mL	32 µg/mL (≈ 34.2 µM)
CC[C@H]1OC(=O)[C@H](C)[C@@H](O[C@H]2C[C@@](C)(OC)[C@@H](O)[C@H](C)O2)[C@H](C)[C@@H](O[C@@H]2O[C@H](C)C[C@H](N(C)C)[C@H]2O)[C@](C)(OC)C[C@@H](C)C(=O)[C@H](C)[C@@H](O)[C@]1(C)O [CLARITHROMYCIN]	< 0.25 µg/mL	256 µg/mL (≈ 342 µM)	4 µg/mL (≈ 5.35 µM)	–	1 µg/mL (≈ 1.34 µM)	> 256 µg/mL	< 0.25 µg/mL	–	> 256 µg/mL
CC[C@H]1OC(=O)[C@H](C)[C@@H](O[C@H]2C[C@@](C)(OC)[C@@H](O)[C@H](C)O2)[C@H](C)[C@@H](O[C@@H]2O[C@H](C)C[C@H](N(C)C)[C@H]2O)[C@](C)(O)C[C@@H](C)CN(C)[C@H](C)[C@@H](O)[C@]1(C)O [AZITHROMYCIN]	< 0.25 µg/mL	256 µg/mL (≈ 342 µM)	2 µg/mL (≈ 2.67 µM)	–	4 µg/mL (≈ 5.34 µM)	> 256 µg/mL	< 0.25 µg/mL	–	> 256 µg/mL
CC[C@H]1OC(=O)[C@H](C)[C@@H](OC(=O)NNC(=O)Cn2cc(-c3cccc([N+](=O)[O-])c3)nn2)[C@H](C)[C@@H](O[C@@H]2O[C@H](C)C[C@H](N(C)C)[C@H]2O)[C@](C)(O)C[C@@H](C)CN(C)[C@H](C)[C@H]2OC(=O)O[C@@]21C	64 µg/mL (≈ 70.7 µM)	128 µg/mL (≈ 141 µM)	32 µg/mL (≈ 35.4 µM)	–	32 µg/mL (≈ 35.4 µM)	256 µg/mL (≈ 283 µM)	128 µg/mL (≈ 141 µM)	–	256 µg/mL (≈ 283 µM)
CC[C@H]1OC(=O)[C@H](C)[C@@H](OC(=O)NNC(=O)Cn2cc(-c3ccccc3Cl)nn2)[C@H](C)[C@@H](O[C@@H]2O[C@H](C)C[C@H](N(C)C)[C@H]2O)[C@](C)(O)C[C@@H](C)CN(C)[C@H](C)[C@H]2OC(=O)O[C@@]21C	32 µg/mL (≈ 35.8 µM)	64 µg/mL (≈ 71.6 µM)	32 µg/mL (≈ 35.8 µM)	–	64 µg/mL (≈ 71.6 µM)	128 µg/mL (≈ 143 µM)	64 µg/mL (≈ 71.6 µM)	–	256 µg/mL (≈ 286 µM)
CC[C@H]1OC(=O)[C@H](C)[C@@H](OC(=O)NNC(=O)Cn2cc(-c3ccc(C)cc3)nn2)[C@H](C)[C@@H](O[C@@H]2O[C@H](C)C[C@H](N(C)C)[C@H]2O)[C@](C)(O)C[C@@H](C)CN(C)[C@H](C)[C@H]2OC(=O)O[C@@]21C	32 µg/mL (≈ 36.6 µM)	64 µg/mL (≈ 73.2 µM)	16 µg/mL (≈ 18.3 µM)	–	32 µg/mL (≈ 36.6 µM)	256 µg/mL (≈ 293 µM)	64 µg/mL (≈ 73.2 µM)	–	256 µg/mL (≈ 293 µM)
CCOc1ccc(-c2cn(CC(=O)NNC(=O)O[C@H]3[C@H](C)[C@@H](O[C@@H]4O[C@H](C)C[C@H](N(C)C)[C@H]4O)[C@](C)(O)C[C@@H](C)CN(C)[C@H](C)[C@H]4OC(=O)O[C@]4(C)[C@@H](CC)OC(=O)[C@@H]3C)nn2)cc1	32 µg/mL (≈ 35.4 µM)	128 µg/mL (≈ 142 µM)	32 µg/mL (≈ 35.4 µM)	–	16 µg/mL (≈ 17.7 µM)	128 µg/mL (≈ 142 µM)	64 µg/mL (≈ 70.8 µM)	–	128 µg/mL (≈ 142 µM)
CCc1ccc(-c2cn(CC(=O)NNC(=O)O[C@H]3[C@H](C)[C@@H](O[C@@H]4O[C@H](C)C[C@H](N(C)C)[C@H]4O)[C@](C)(O)C[C@@H](C)CN(C)[C@H](C)[C@H]4OC(=O)O[C@]4(C)[C@@H](CC)OC(=O)[C@@H]3C)nn2)cc1	16 µg/mL (≈ 18 µM)	32 µg/mL (≈ 36 µM)	16 µg/mL (≈ 18 µM)	–	32 µg/mL (≈ 36 µM)	64 µg/mL (≈ 72.1 µM)	32 µg/mL (≈ 36 µM)	–	64 µg/mL (≈ 72.1 µM)
CC[C@H]1OC(=O)[C@H](C)[C@@H](OC(=O)NNC(=O)Cn2cc(-c3ccc(Br)cc3)nn2)[C@H](C)[C@@H](O[C@@H]2O[C@H](C)C[C@H](N(C)C)[C@H]2O)[C@](C)(O)C[C@@H](C)CN(C)[C@H](C)[C@H]2OC(=O)O[C@@]21C	32 µg/mL (≈ 34.1 µM)	64 µg/mL (≈ 68.2 µM)	64 µg/mL (≈ 68.2 µM)	–	32 µg/mL (≈ 34.1 µM)	64 µg/mL (≈ 68.2 µM)	32 µg/mL (≈ 34.1 µM)	–	128 µg/mL (≈ 136 µM)
CC[C@H]1OC(=O)[C@H](C)[C@@H](OC(=O)NNC(=O)Cn2cc(-c3cccc(Br)c3)nn2)[C@H](C)[C@@H](O[C@@H]2O[C@H](C)C[C@H](N(C)C)[C@H]2O)[C@](C)(O)C[C@@H](C)CN(C)[C@H](C)[C@H]2OC(=O)O[C@@]21C	64 µg/mL (≈ 68.2 µM)	128 µg/mL (≈ 136 µM)	32 µg/mL (≈ 34.1 µM)	–	32 µg/mL (≈ 34.1 µM)	128 µg/mL (≈ 136 µM)	64 µg/mL (≈ 68.2 µM)	–	256 µg/mL (≈ 273 µM)
CCCc1ccc(-c2cn(CC(=O)NNC(=O)O[C@H]3[C@H](C)[C@@H](O[C@@H]4O[C@H](C)C[C@H](N(C)C)[C@H]4O)[C@](C)(O)C[C@@H](C)CN(C)[C@H](C)[C@H]4OC(=O)O[C@]4(C)[C@@H](CC)OC(=O)[C@@H]3C)nn2)cc1	16 µg/mL (≈ 17.7 µM)	32 µg/mL (≈ 35.5 µM)	16 µg/mL (≈ 17.7 µM)	–	8 µg/mL (≈ 8.87 µM)	64 µg/mL (≈ 70.9 µM)	16 µg/mL (≈ 17.7 µM)	–	64 µg/mL (≈ 70.9 µM)
